Results taken from patent US11667602B2, “Compounds and their use” (AstraZeneca AB, priority 2020, dated 2023).
Converted amounts (≈) assume the structure as drawn.

Key:
[1] = Rat Hepatocyte Stability (Test E); type: in vitro ADME; conditions: geometric mean if run multiple times; for hepatocyte CLint: rat, hepatocytes
How it was run: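 Run per the published AstraZeneca-type rat hepatocyte stability protocol (Wernevik et al. panel). Values are mean intrinsic clearance, Clint in μl/min/10^6 cells; geometric mean used for repeated runs.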

[2] = Solubility (Test F); type: physicochemical; conditions: arithmetic mean if run multiple times
Description: The assay was conducted according to the Solubility Assay described in pages 164-167 of Wernevik, J. et al., “A Fully Integrated Assay Panel for Early Drug Metabolism and Pharmacokinetics Profiling”, Assay and Drug Development Technologies, 2020, 18(4), 157-179. Data are reported in Table 36 as solubility ([…]. Where the assay was run multiple times for the same compound, the arithmetic mean is reported.

[3] = Human Hepatocyte Stability (Test D); type: in vitro ADME; conditions: geometric mean if run multiple times; for hepatocyte CLint at 1 µM: human, cryopreserved pooled human hepatocytes (LiverPool 10-Donor)
Description: Human Hepatocyte Stability (Test D)
The metabolic stability of compounds in human hepatocytes was assessed using the following protocol:
1. Prepare 10 mM stock solutions of compound and control compounds in appropriate solvent (DMSO). Place incubation medium (L-15 Medium) in a 37° C. water bath, and allow warming for at least 15 minutes prior to use.
2. Add 80 μL of acetonitrile to each well of the 96-well deep well plate (“Quenching plate”).
3. In a new 96-well plate, dilute the 10 mM test compounds and the control compounds to 100 μM by combining 198 μL of acetonitrile and 2 μL of 10 mM stock solution.
4. Remove a vial of cryopreserved (less than −150° C.) human hepatocytes (LiverPool™ 10-Donor Human hepatocytes obtained from Bioreclamation IVT (Product No. S01205)) from storage, ensuring that vials remain at cryogenic temperatures until thawing process ensues. As quickly as possible, thaw the cells by placing the vial in a 37° C. water bath and gently shaking the vials. Vials should remain in water bath until all ice crystals have dissolved and are no longer visible. After thawing is complete, spray vial with 70% ethanol, transfer the vial to a bio-safety cabinet.
5. Open the vial and pour the contents into the 50 mL conical tube containing thawing medium. Place the 50 mL conical tube into a centrifuge and spin at 100 g for 10 minutes (room temperature).
6. Using Cellometer® Vision, count cells and determine the viable cell density. Cells with poor viability (<80% viability) are not acceptable for use.
7. Transfer 247.5 μL of hepatocytes into each well of a 96-well cell incubation plate. Place the plate on Eppendorf Thermomixer Comfort plate shaker to allow the hepatocytes to warm for 10 minutes.
8. Add 2.5 μL of 100 μM test compound or control compounds into an incubation well containing cells to initiate the reaction.
9. Incubate the plate at 37° C. and 900 rpm on an Eppendorf Thermomixer Comfort plate shaker.
10. Centrifuge the quenching plates for 20 minutes at 4,000 rpm. Transfer 30 μL of supernatant of each compound into a 96-well analysis plate. 4 compounds are pooled together into one cassette. Then dilute the pooled sample by adding of 180 μl of pure water. All incubations are performed in singlicate.
All calculations were carried out using Microsoft Excel. Peak areas were determined from extracted ion chromatograms. In vitro intrinsic clearance (in vitro Clint, in μL/min/10^6 cells) of parent compound was determined by regression analysis of the Ln percent parent disappearance vs. time curve. The in vitro intrinsic clearance (in vitro Clint, in μL/min/10^6 cells) reported in Table 36, and was determined from the slope value using the following equation: in vitro Clint=kV/N
V=incubation volume (0.25 mL);
N=number of hepatocytes per well (0.25×10^6 cells)
Where the assay was run multiple times for the same compound, the geometric mean is reported.

[4] = Human Liver Microsomal Stability (Test C); type: in vitro ADME; conditions: for microsomal CLint: human, liver microsomes
How it was run: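 Human liver microsome incubation per the Wernevik et al. integrated DMPK panel protocol. Intrinsic clearance reported as CLint in μl/min/mg protein, averaged arithmetically over repeat runs.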

[5] = target: T1, human RXFP1 (Homo sapiens, UniProt Q9HBX9); test: RXFP1 Hu cAMP (Test A); type: cell-based; design: expressed in transfected cells; host or cells: Jump-In T-REx CHO-K1 cells (ThermoFisher), induced with 10 ng/ml doxycycline for 24 h; conditions: RXFP1 Hu cAMP; for EC50: read-out: Test A EC50
T1 sequence (Q9HBX9 1-757): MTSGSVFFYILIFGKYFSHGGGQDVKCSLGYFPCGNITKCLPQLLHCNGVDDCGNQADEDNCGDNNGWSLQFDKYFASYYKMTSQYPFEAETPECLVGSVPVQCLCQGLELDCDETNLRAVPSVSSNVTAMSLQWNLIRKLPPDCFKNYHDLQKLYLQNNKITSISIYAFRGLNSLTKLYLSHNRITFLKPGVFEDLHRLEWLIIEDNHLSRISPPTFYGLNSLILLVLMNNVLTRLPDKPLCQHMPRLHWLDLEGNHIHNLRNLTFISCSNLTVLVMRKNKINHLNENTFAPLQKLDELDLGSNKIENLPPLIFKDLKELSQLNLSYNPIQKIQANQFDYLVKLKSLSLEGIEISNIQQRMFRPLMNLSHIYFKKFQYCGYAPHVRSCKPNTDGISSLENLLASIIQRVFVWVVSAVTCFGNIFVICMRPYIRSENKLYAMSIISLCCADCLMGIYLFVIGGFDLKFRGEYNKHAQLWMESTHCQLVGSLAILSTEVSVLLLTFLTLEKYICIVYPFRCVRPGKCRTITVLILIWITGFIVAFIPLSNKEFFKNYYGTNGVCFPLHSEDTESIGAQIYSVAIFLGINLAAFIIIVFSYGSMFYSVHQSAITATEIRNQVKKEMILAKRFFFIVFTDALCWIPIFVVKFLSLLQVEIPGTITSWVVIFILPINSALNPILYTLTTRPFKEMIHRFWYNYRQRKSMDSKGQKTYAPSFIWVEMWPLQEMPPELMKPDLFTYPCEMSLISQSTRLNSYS
How it was run: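 Competitive HTRF cAMP readout (2 h, room temperature) in CHO-K1 cells stably expressing human RXFP1, induced with 10 ng/ml doxycycline for 24 h; IBMX 0.5 mM final.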

[6] = Human Plasma Protein Binding (Test B); type: in vitro ADME; conditions: fraction unbound (fu)
How it was run: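 Human plasma protein binding run per the published Wernevik et al. (2020) integrated DMPK panel protocol. Values are fraction unbound (fu, % free); repeat runs averaged arithmetically.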

Row | Structure (SMILES) | hepatocyte CLint [1] | solubility [2] | hepatocyte CLint at 1 µM [3] | microsomal CLint [4] | Test A Sinf [5] | EC50 [5] | Test E Rat Hepatocyte Stability Clint ([1]; rat hepatocytes) | Test D Human Hepatocyte Stability Clint ([3]; human hepatocytes) | Test C Human Liver Microsomal Stability Clint ([4]; human liver microsomes) | Test B Human Plasma Protein Binding (% free) [6]
1 | COc1cc(F)c(-c2cccc(C[C@@H](C(=O)O)N(C)C)c2)cc1C(=O)N[C@@H]1[C@H]2CC[C@H](C2)[C@@H]1C(=O)Nc1cccc(S(=O)(=O)C(F)(F)F)c1 (racemic) [Example 293] | 41 µL/min/1e6 cells | 21 µM (≈ 14.8 µg/mL) | 8.4 µL/min/1e6 cells | 27 µL/min/mg | 118% | 390 nM | – | – | – | –
2 | CCC(C)CNC(=O)C1C2CCC(C2)C1NC(=O)c1cc(OC2CCC(C(=O)O)CC2)c(F)cc1OC (single isomer, unassigned) [Example 202, (1S,4s)-4-(2-Fluoro-4-methoxy-5-(((1S,2R,3S,4R)-3-(((R*)-2-methylbutyl)carbamoyl)bicyclo[2.2.1]heptan-2-yl)carbamoyl)phenoxy)cyclohexane-1-carboxylic acid] | 57 µL/min/1e6 cells | 890 µM (≈ 462 µg/mL) | 5.6 µL/min/1e6 cells | 14 µL/min/mg | 102% | – | – | – | – | –
3 | CCC(C)CNC(=O)C1C2CCC(C2)C1NC(=O)c1cc(OC2CCC(C(=O)O)CC2)c(F)cc1OC (single isomer, unassigned) [Example 203, (1S,4s)-4-(2-Fluoro-4-methoxy-5-(((1S,2R,3S,4R)-3-(((R*)-2-methylbutyl)carbamoyl)bicyclo[2.2.1]heptan-2-yl)carbamoyl)phenoxy)cyclohexane-1-carboxylic acid] | – | 1000 µM (≈ 519 µg/mL) | – | – | 118% | – | 34 μL/min/10^6 cells | 5 μL/min/10^6 cells | 19 µL/min/mg | –
4 | COc1cc(F)c(O[C@H]2CC[C@@](C)(C(=O)O)CC2)cc1C(=O)NC1C(C(=O)Nc2cccc(S(=O)(=O)C(F)(F)F)c2)CC2OCOC21 (single isomer, unassigned) [Example 512, (1R,4s)-4-(2-Fluoro-4-methoxy-5-(((3aR*,4S*,5S*,6aS*)-5-((3-((trifluoromethyl)sulfonyl)phenyl)carbamoyl)tetrahydro-4H-cyclopenta[d][1,3]dioxol-4-yl)carbamoyl)phenoxy)-1-methylcyclohexane-1-carboxylic acid] | 25 µL/min/1e6 cells | 880 µM (≈ 606 µg/mL) | 4.2 µL/min/1e6 cells | 12 µL/min/mg | 104% | – | – | – | – | –
5 | COc1cc(F)c(O[C@H]2CC[C@@](C)(C(=O)O)CC2)cc1C(=O)N[C@@H]1CCC[C@@H]1C(=O)N[C@H](C)C(C)(C)C [Example 65, (1S,4s)-4-(5-(((1R,2S)-2-(((R)-3,3-Dimethylbutan-2-yl)carbamoyl)cyclopentyl)carbamoyl)-2-fluoro-4-methoxyphenoxy)-1-methylcyclohexane-1-carboxylic acid] | 9.7 µL/min/1e6 cells | > 1000 µM | 3.1 µL/min/1e6 cells | 5.5 µL/min/mg | 99% | 160 nM | – | – | – | –
6 | COc1cc(F)c(O[C@H]2CC[C@@](C)(C(=O)O)CC2)cc1C(=O)N[C@@H]1CCC[C@@H]1C(=O)NCC1(C)CCC1 [Example 67] | 18 µL/min/1e6 cells | > 1000 µM | 2.6 µL/min/1e6 cells | < 3 µL/min/mg | 105% | 270 nM | – | – | – | –
7 | CCC(CC)CNC(=O)[C@H]1[C@@H]2CC[C@@H](C2)[C@H]1NC(=O)c1cc(O[C@H]2CC[C@@H](C(=O)O)CC2)c(F)cc1OC [Example 197, (1S,4s)-4-(5-(((1S,2R,3S,4R)-3-((2-ethylbutyl)carbamoyl)bicyclo[2.2.1]heptan-2-yl)carbamoyl)-2-fluoro-4-methoxyphenoxy)cyclohexane-1-carboxylic acid] | 28 µL/min/1e6 cells | 1000 µM (≈ 533 µg/mL) | 12 µL/min/1e6 cells | 45 µL/min/mg | 106% | 1400 nM | – | – | – | –
8 | COc1cc(F)c(O[C@H]2CC[C@@H](C(=O)O)CC2)cc1C(=O)N[C@@H]1[C@H]2CC[C@H](C2)[C@@H]1C(=O)NCC1(C)CC1 [Example 198] | 77 µL/min/1e6 cells | 920 µM (≈ 475 µg/mL) | 6.6 µL/min/1e6 cells | 12 µL/min/mg | 99% | 1200 nM | – | – | – | –
9 | COc1cc(F)c(O[C@H]2CC[C@@H](C(=O)O)CC2)cc1C(=O)N[C@@H]1[C@H]2CC[C@H](C2)[C@@H]1C(=O)N[C@@H](C)C(C)(C)C [Example 199] | 20 µL/min/1e6 cells | 1000 µM (≈ 533 µg/mL) | 2.6 µL/min/1e6 cells | 26 µL/min/mg | 100% | 21000 nM | – | – | – | –
10 | COc1cc(F)c(O[C@H]2CC[C@@H](C(=O)O)CC2)cc1C(=O)N[C@@H]1[C@H]2CC[C@H](C2)[C@@H]1C(=O)N[C@H](C)C(C)(C)C [Example 200] | 15 µL/min/1e6 cells | 55 µM (≈ 29.3 µg/mL) | 3.7 µL/min/1e6 cells | 32 µL/min/mg | 100% | 590 nM | – | – | – | –
11 | COc1cc(C#N)c(O[C@H]2CC[C@@H](C(=O)O)CC2)cc1C(=O)N[C@@H]1[C@H]2CC[C@H](C2)[C@@H]1C(=O)Nc1cccc(S(=O)(=O)C(F)(F)F)c1 [Example 467, (1S,4s)-4-(2-Cyano-4-methoxy-5-(((1S,2R,3S,4R)-3-((3-((trifluoromethyl)sulfonyl)phenyl)carbamoyl)bicyclo[2.2.1]heptan-2-yl)carbamoyl)phenoxy)cyclohexane-1-carboxylic acid] | 47 µL/min/1e6 cells | > 1000 µM | – | 37 µL/min/mg | 99% | 19 nM | – | – | – | 3.7 % free
